The target in one data set is T1, HIV protease (Human immunodeficiency virus type 1 group M subtype B, UniProt P04585).
T1 construct: HIV protease is diluted in the assay buffer to a final enzyme concentration of 12.3 nanomolar, based on a molecular weight of 10,780
Briefly: HIV protease enzyme assay (fluorogenic substrate 2-aminobenzoyl-Ile-Nle-Phe(p-NO2)-Gln-ArgNH2). Type of data set: biochemical. The text has this: The compounds of the present invention are effective HIV protease inhibitors. Utilizing an enzyme assay as described below, the compounds set forth in the examples herein disclosed inhibited the HIV enzyme. The preferred compounds of the present invention and their calculated IC50 (inhibiting concentration 50%, i.e., the concentration at which the inhibitor compound reduces enzyme activity by 50%) values are shown in Table 6. The enzyme method is described below. The substrate is 2-aminobenzoyl-Ile-Nle-Phe(p-NO2)-Gln-ArgNH2. The positive control is MVT-101 (Miller, M. et al, Science, 246, 1149 (1989)] The assay conditions are as follows: Assay buffer: • 20 mM sodium phosphate, pH 6.4 • 20% glycerol • 1 mM EDTA • 1 mM DTT • 0.1% CHAPS
The above described substrate is dissolved in DMSO, then diluted 10 fold in assay buffer. Final substrate concentration in the assay is 80 µM.
HIV protease is diluted in the assay buffer to a final enzyme concentration of 12.3 nanomolar, based on a molecular weight of 10,780.
The final concentration of DMSO is 14% and the final concentration of glycerol is 18%. The test compound is dissolved in DMSO and diluted in DMSO to 10x the test concentration; 10 µl of the enzyme preparation is added, the materials mixed and then the mixture is incubated at ambient temperature for 15 minutes. The enzyme reaction is initiated by the addition of 40µl of substrate. The increase in fluorescence is monitored at 4 time points (0, 8, 16 and 24 minutes) at ambient temperature. Each assay is carried out in duplicate wells.

A further data set has as its system HIV-1. The experiment in a line: HIV inhibition assay of acutely infected CEM cells (tetrazolium/MTT colorimetric). As to conditions: Table 7, CEM cells acutely infected with HIV-1, 7 days, MTT. Type of data set: cell-based. The method, then:
The effectiveness of the compounds listed in Table 7 were determined in the above-described enzyme assay and in a CEM cell assay.
(§1) Methods 20, 309-321 (1988).

In another data set the test system is CEM cells. Briefly: Intrinsic toxicity of test compound in uninfected CEM cells (MTT). As to conditions: Table 7, CEM cells without virus, 7 days, read-out: TD50 (the source's name). It counts as cell-based.
Description: as §1

Setting [1] is: Table 6, 80 µM substrate, 12.3 nanomolar enzyme, pH 6.4.
Where [2] appears, read: Table 7, above-described enzyme assay.

For orientation: IC50 means the concentration that inhibits the measured activity by half. A word on the EC50: it is the concentration at which the effect is half-maximal. A lower EC50 goes with higher potency in that assay. Compound `COc1ccc(COC(=O)N[C@@H](Cc2ccccc2)[C@H](O)CN(CCC(C)C)C(=O)NC(C)(C)C)cc1` (relative stereo) [Carbamic acid, [3-[[[(1,1-dimethylethyl)amino]carbonyl](3-methylbutyl)amino]-2-hydroxy-1-(phenylmethyl)propyl]-, (4-methoxyphenyl)methyl ester, [1S-[1R*,2S*]]] displayed an IC50 against HIV protease (setting [1]) of 489 nM. Besides, the EC50 in the data set with HIV-1 (Human immunodeficiency virus 1, CCRF-CEM, 168 h) stood at 820 nM.
Consider `CC(C)CCN(C[C@@H](O)[C@H](Cc1ccccc1)NC(=O)OCc1ccccc1)C(=O)NC(C)(C)C` (relative stereo) [Carbamic acid, [3-[[[(1,1-dimethylethyl)amino]carbonyl](3-methylbutyl)amino]-2-hydroxy-1-(phenylmethyl)propyl]-, phenylmethyl ester, [1S-[1R*,2S*]]], for which the IC50 at HIV protease (setting [1]) turned out to be 112 nM.
As to `CC(C)C[C@H](NC(=O)[C@@H](N)Cc1ccccc1)C(=O)NC(=O)NC[C@H](O)[C@H](Cc1ccccc1)NC(=O)OC(C)(C)C` [(2S,3S)-3-(N-1,1-dimethylethoxycarbonyl)amido-1-(L-phenylalanyl-L-leucylcarbamoyl)amino-4-phenyl butanol], the IC50 at HIV protease (setting [1]) and against HIV protease (setting [2]) was 5000 nM in each case. The compound further gave an EC50 in the data set on HIV-1 of 13000 nM. Also, the CC50 in the data set on CEM cells came out at 54000 nM.
“Phenylmethylamide, N-[3-[[[(1,1-dimethylethyl)amino]carbonyl](3-methylbutyl)amino]-2-hydroxy-1-(phenylmethyl)propyl]-3,3-dimethyl-, [1S-[1R*,2S*]]”: the IC50 against HIV protease (setting [1]) and against HIV protease (setting [2]) was 850 nM throughout.

(Values after patent publication EP0554400B1, “RETROVIRAL PROTEASE INHIBITORS” (MONSANTO COMPANY, priority 1990, dated 1992).)
